Reference: PubChem BioAssay (NCI)
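The concentration for 50% growth inhibition is given as GI50. TGI is the concentration that stops growth completely.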

What was measured:
Test in all cases: DTP human tumour cell line panel, 384-well format
OVCAR-3 ovarian = system: OVCAR-3 ovarian
OVCAR-8 ovarian = system: OVCAR-8 ovarian
NCI/ADR-RES ovarian = system: NCI/ADR-RES ovarian
BT-549 breast = system: BT-549 breast
A549 NSCLC = system: A549 NSCLC
MALME-3M melanoma = system: MALME-3M melanoma
MDA-MB-468 breast = system: MDA-MB-468 breast
UACC-62 melanoma = system: UACC-62 melanoma
KM12 colon = system: KM12 colon
MDA-MB-231 breast = system: MDA-MB-231 breast
HS 578T breast = system: HS 578T breast
NCI-H226 lung = system: NCI-H226 lung
MCF7 breast = system: MCF7 breast
HOP-62 NSCLC = system: HOP-62 NSCLC
SW-620 colon = system: SW-620 colon
786-0 renal = system: 786-0 renal
UACC-257 melanoma = system: UACC-257 melanoma
OVCAR-4 ovarian = system: OVCAR-4 ovarian
MDA-MB-435 melanoma = system: MDA-MB-435 melanoma
COLO 205 colon = system: COLO 205 colon
SK-MEL-28 melanoma = system: SK-MEL-28 melanoma
M14 melanoma = system: M14 melanoma
CCRF-CEM leukemia = system: CCRF-CEM leukemia
SNB-75 CNS = system: SNB-75 CNS
HCT-15 colon = system: HCT-15 colon
NCI-H23 lung = system: NCI-H23 lung
NCI-H460 NSCLC = system: NCI-H460 NSCLC
SR leukemia = system: SR leukemia
NCI-H322M lung = system: NCI-H322M lung
U251 glioblastoma = system: U251 glioblastoma
SK-MEL-5 melanoma = system: SK-MEL-5 melanoma
NCI-H522 lung = system: NCI-H522 lung
SF-268 CNS = system: SF-268 CNS
HOP-92 NSCLC = system: HOP-92 NSCLC
SNB-19 CNS = system: SNB-19 CNS
T-47D breast = system: T-47D breast
TK-10 renal = system: TK-10 renal
CAKI-1 renal = system: CAKI-1 renal
A498 renal = system: A498 renal
K-562 leukemia = system: K-562 leukemia
IGROV1 ovarian = system: IGROV1 ovarian
SN12C renal = system: SN12C renal
SF-539 CNS = system: SF-539 CNS
HT29 colon = system: HT29 colon
HCC-2998 colon = system: HCC-2998 colon
SF-295 CNS = system: SF-295 CNS
RPMI-8226 leukemia = system: RPMI-8226 leukemia
EKVX NSCLC = system: EKVX NSCLC
HCT-116 colon = system: HCT-116 colon
LOX IMVI melanoma = system: LOX IMVI melanoma
UO-31 renal = system: UO-31 renal
MOLT-4 leukemia = system: MOLT-4 leukemia
SK-OV-3 ovarian = system: SK-OV-3 ovarian
PC-3 prostate = system: PC-3 prostate
HL-60(TB) leukemia = system: HL-60(TB) leukemia
DU-145 prostate = system: DU-145 prostate
RXF 393 renal = system: RXF 393 renal
ACHN renal = system: ACHN renal

SMILES: N#CC1(c2ccc(NC(=O)c3cccnc3NCc3ccncc3)cc2)CCCC1
- GI50 (OVCAR-3 ovarian): 9.01 µM
- TGI (OVCAR-3 ovarian): 21.7 µM
- GI50 (OVCAR-8 ovarian): 11.1 µM
- TGI (OVCAR-8 ovarian): 24.7 µM
- GI50 (NCI/ADR-RES ovarian): 11 µM
- TGI (NCI/ADR-RES ovarian): 27.2 µM
- GI50 (BT-549 breast): 8.33 µM
- TGI (BT-549 breast): 22.9 µM
- GI50 (A549 NSCLC): 12.1 µM
- TGI (A549 NSCLC): 25.5 µM
- GI50 (MALME-3M melanoma): 3.09 µM
- TGI (MALME-3M melanoma): 13.2 µM
- GI50 (MDA-MB-468 breast): 3.62 µM
- TGI (MDA-MB-468 breast): 14.3 µM
- GI50 (UACC-62 melanoma): 10.9 µM
- TGI (UACC-62 melanoma): 22.9 µM
- GI50 (KM12 colon): 13 µM
- TGI (KM12 colon): 26.5 µM
- GI50 (MDA-MB-231 breast): 4.96 µM
- TGI (MDA-MB-231 breast): 20.3 µM
- GI50 (HS 578T breast): 3.38 µM
- TGI (HS 578T breast): 15.2 µM
- GI50 (NCI-H226 lung): 11 µM
- TGI (NCI-H226 lung): 27.5 µM
- GI50 (MCF7 breast): 5.9 µM
- TGI (MCF7 breast): 21.2 µM
- GI50 (HOP-62 NSCLC): 11.2 µM
- TGI (HOP-62 NSCLC): 23.7 µM
- GI50 (SW-620 colon): 8.06 µM
- TGI (SW-620 colon): 20 µM
- GI50 ([…]-0 renal): 4.39 µM
- TGI (786-0 renal): 15.5 µM
- GI50 (UACC-257 melanoma): 10.4 µM
- TGI (UACC-257 melanoma): 25.1 µM
- GI50 (OVCAR-4 ovarian): 11.7 µM
- TGI (OVCAR-4 ovarian): 30.1 µM
- GI50 (MDA-MB-435 melanoma): 14.5 µM
- TGI (MDA-MB-435 melanoma): 28.2 µM
- GI50 (COLO 205 colon): 13.4 µM
- TGI (COLO 205 colon): 37.6 µM
- GI50 (SK-MEL-28 melanoma): 13.8 µM
- TGI (SK-MEL-28 melanoma): 40.6 µM
- GI50 (M14 melanoma): 12.6 µM
- TGI (M14 melanoma): 30 µM
- GI50 (CCRF-CEM leukemia): 4.22 µM
- TGI (CCRF-CEM leukemia): 17.6 µM
- GI50 (SNB-75 CNS): 7.08 µM
- TGI (SNB-75 CNS): 20.7 µM
- GI50 (HCT-15 colon): 3.17 µM
- TGI (HCT-15 colon): 12.5 µM
- GI50 (NCI-H23 lung): 9.55 µM
- TGI (NCI-H23 lung): 23.1 µM
- GI50 (NCI-H460 NSCLC): 7.74 µM
- TGI (NCI-H460 NSCLC): 20.3 µM
- GI50 (SR leukemia): 2.45 µM
- TGI (SR leukemia): 4.9 µM
- GI50 (NCI-H322M lung): 12.2 µM
- TGI (NCI-H322M lung): 31.2 µM
- GI50 (U251 glioblastoma): 12.6 µM
- TGI (U251 glioblastoma): 25.1 µM
- GI50 (SK-MEL-5 melanoma): 2.82 µM
- TGI (SK-MEL-5 melanoma): 13 µM
- GI50 (NCI-H522 lung): 10.5 µM
- TGI (NCI-H522 lung): 22.5 µM
- GI50 (SF-268 CNS): 12.9 µM
- TGI (SF-268 CNS): 27.2 µM
- GI50 (HOP-92 NSCLC): 10.3 µM
- TGI (HOP-92 NSCLC): 23.8 µM
- GI50 (SNB-19 CNS): 14.3 µM
- TGI (SNB-19 CNS): 28.9 µM
- GI50 (T-47D breast): 2.75 µM
- TGI (T-47D breast): 14.5 µM
- GI50 (TK-10 renal): 11.2 µM
- TGI (TK-10 renal): 28.8 µM
- GI50 (CAKI-1 renal): 11.7 µM
- TGI (CAKI-1 renal): 25 µM
- GI50 (A498 renal): 7.95 µM
- TGI (A498 renal): 20.5 µM
- GI50 (K-562 leukemia): 2.88 µM
- TGI (K-562 leukemia): 12.2 µM
- GI50 (IGROV1 ovarian): 13.7 µM
- TGI (IGROV1 ovarian): 31 µM
- GI50 (SN12C renal): 7.37 µM
- TGI (SN12C renal): 25.3 µM
- GI50 (SF-539 CNS): 4.43 µM
- TGI (SF-539 CNS): 19.2 µM
- GI50 (HT29 colon): 3.99 µM
- TGI (HT29 colon): 12.6 µM
- GI50 (HCC-2998 colon): 5.87 µM
- TGI (HCC-2998 colon): 17.3 µM
- GI50 (SF-295 CNS): 9.76 µM
- TGI (SF-295 CNS): 21.5 µM
- GI50 (RPMI-8226 leukemia): 1.95 µM
- TGI (RPMI-8226 leukemia): 5.66 µM
- GI50 (EKVX NSCLC): 6.32 µM
- TGI (EKVX NSCLC): 25.8 µM
- GI50 (HCT-116 colon): 10.6 µM
- TGI (HCT-116 colon): 22.4 µM
- GI50 (LOX IMVI melanoma): 13.3 µM
- TGI (LOX IMVI melanoma): 26.1 µM
- GI50 (UO-31 renal): 12.6 µM
- TGI (UO-31 renal): 25.2 µM
- GI50 (MOLT-4 leukemia): 4.64 µM
- TGI (MOLT-4 leukemia): 17.3 µM
- GI50 (SK-OV-3 ovarian): 12.1 µM
- TGI (SK-OV-3 ovarian): 24.6 µM
- GI50 (PC-3 prostate): 9.47 µM
- TGI (PC-3 prostate): 23.1 µM
- GI50 (HL-60(TB) leukemia): 2.05 µM
- TGI (HL-60(TB) leukemia): 3.76 µM
- GI50 (DU-145 prostate): 12.3 µM
- TGI (DU-145 prostate): 33.5 µM
- GI50 (RXF 393 renal): 1.84 µM
- TGI (RXF 393 renal): 5.83 µM
- GI50 (ACHN renal): 13.7 µM
- TGI (ACHN renal): 36.2 µM
